Experimental data taken from PubChem BioAssay (NCI).
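Each compound was tested at five concentrations against cells in 96-well plates for 48 hours. Here, GI50 denotes the concentration required for 50% inhibition of growth. At the TGI there is no net growth.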

Experiments:
Assay in all cases: NCI-60 cell line screen, 48 h
A498 renal = tested on: A498 renal
786-0 renal = tested on: 786-0 renal
CAKI-1 renal = tested on: CAKI-1 renal
SN12C renal = tested on: SN12C renal
HOP-62 NSCLC = tested on: HOP-62 NSCLC
OVCAR-8 ovarian = tested on: OVCAR-8 ovarian
HS 578T breast = tested on: HS 578T breast

| SMILES | GI50 (A498 renal) [µM] | TGI (A498 renal) [µM] | GI50 (786-0 renal) [µM] | TGI (786-0 renal) [µM] | GI50 (CAKI-1 renal) [µM] | TGI (CAKI-1 renal) [µM] | GI50 (SN12C renal) [µM] | TGI (SN12C renal) [µM] | GI50 (HOP-62 NSCLC) [µM] | TGI (HOP-62 NSCLC) [µM] | GI50 (OVCAR-8 ovarian) [µM] | TGI (OVCAR-8 ovarian) [µM] | GI50 (HS 578T breast) [µM] | TGI (HS 578T breast) [µM] |
| --- | --- | --- | --- | --- | --- | --- | --- | --- | --- | --- | --- | --- | --- | --- |
| Cc1cccc2c1[nH]c(=O)c1c3ccccc3cn21 | 16.1 | 42.1 | 5.92 | 32.2 | 2.19 | 8.75 | 1.81 | 18.8 | 3.58 | 15.2 | 3.57 | > 100 | 21.8 | 64.4 |
| CN(C)CCCNc1nc2ccccc2c2[nH]c3ccccc3c12 | 6.42 | 13.4 | 0.958 | 5.2 | 1.09 | 3.01 | 0.639 | 2.26 | 0.497 | 3.77 | 0.917 | 6.65 | 3.04 | 9.61 |
| COC(=O)N[C@H]1CCc2c(Cl)c(OC)c(OC)c(OC)c2-c2ccc(SC)c(=O)cc21 | < 0.01 | < 0.01 | < 0.01 | > 36.9 | < 0.0208 | 48.3 | < 0.01 | > 43.9 | < 0.01 | > 100 | < 0.01 | > 100 | < 0.01 | > 100 |
| COc1ccc(S(=O)(=O)N(C(C)=O)c2ccccc2/C=C/c2cc[n+]([O-])cc2)cc1 | 0.209 | > 2.8 | 1.67 | > 10 | 0.588 | > 10 | 1.61 | > 10 | 0.86 | > 10 | 1.11 | > 10 | 0.404 | > 10 |
| C=C1CCC2C3(C)COC(c4ccccc4Cl)OC3CCC2(C)C1/C=C/C1=CCOC1=O (stereo not drawn) | > 100 | > 100 | > 100 | > 100 | 4.08 | > 100 | > 100 | > 100 | > 100 | > 100 | 13.8 | > 100 | > 100 | > 100 |
| CCCCn1c(=O)c(/C=C/C(=O)/C=C/c2cc3ccccc3n(CCCC)c2=O)cc2ccccc21 | – | – | 1.35 | 3.08 | 1.87 | 3.27 | 2.21 | 5.2 | 2.27 | 4.08 | 1.5 | 4.12 | 3.01 | 23.7 |
| CCOC(=O)/C=C/c1cccc(F)c1 | – | > 100 | – | > 100 | – | > 100 | – | > 100 | – | > 100 | – | > 100 | – | – |
| N#Cc1cc(S(=O)(=O)Nc2nc3ccccc3o2)c(SCc2ccccc2)cc1Cl | 21.3 | 43.7 | 21.8 | 45.2 | 24.7 | 65.2 | 24.7 | 57.9 | 21.4 | 43.6 | 5.1 | 63.2 | 25.4 | 62 |
| NC(Cc1ccccc1)c1nccs1 (stereo not drawn) | – | > 100 | – | > 100 | – | > 100 | – | > 100 | – | > 100 | – | > 100 | – | > 100 |
| CC(C)(C)OC(=O)N[C@@H](Cc1ccccc1)C(=O)N(Cc1ccccc1)C1(C(=O)NCc2ccccc2)CCN(Cc2ccccc2)CC1 | 1.43 | 6.36 | 2.99 | 43.3 | 2.32 | > 100 | 3.45 | > 100 | 3.89 | > 100 | 3.51 | > 100 | 4.22 | > 100 |
| CN1CCN(CCCOc2cc(O)c3c(=O)cc(-c4ccccc4)oc3c2)CC1 | 22 | 43.4 | 20.6 | 43.3 | 15.1 | 33.4 | 18.9 | 41.3 | 16.6 | 32 | 37.1 | > 100 | 23 | 52.9 |
| CCn1c2ccccc2c2cc(C(=O)c3ccc(C)c4ccccc34)ccc21 | 0.282 | 1.15 | 0.426 | > 100 | 1.61 | > 100 | 2.44 | > 100 | 0.476 | > 100 | 0.493 | > 100 | 0.756 | > 100 |
| CNC(=O)c1cncc(/C=C/c2ccccc2Cl)c1 | > 25 | > 25 | > 25 | > 25 | > 25 | > 25 | > 25 | > 25 | > 25 | > 25 | > 25 | > 25 | 24.5 | > 25 |
| CCn1c(-c2nonc2N)nc2c(N3CCCC3)nccc21 | 8.39 | > 25 | > 18.6 | > 25 | 13.4 | > 25 | 15 | > 25 | 12.3 | > 25 | 9.88 | > 25 | > 19.4 | > 25 |
| O=C(O)c1ccc(SSc2ccc(C(=O)O)cn2)nc1 | – | > 100 | – | > 100 | – | > 100 | – | > 100 | – | > 100 | – | > 100 | – | > 100 |
| C[C@@H]1CC[C@@]2(NC1)O[C@H]1C[C@H]3[C@@H]4CC[C@H]5C[C@@H](O)CC[C@]5(C)[C@H]4CC[C@]3(C)[C@H]1[C@@H]2C | – | > 100 | – | > 100 | – | > 100 | – | > 100 | – | > 100 | – | 54.7 | – | > 100 |
| COc1cc(/C=C2\CCCC3=C2N=C2SC(C)=NN2C3c2cc(OC)c(OC)c(OC)c2)cc(OC)c1OC (stereo not drawn) | 0.153 | > 100 | > 100 | > 100 | – | – | – | – | > 100 | > 100 | 0.311 | > 100 | > 100 | > 100 |
